Results on 10 compounds are retold here after publication PMC12040169 (PLOS Biology, 2025).

Data set [1] in a line: in vitro. The following applies: human, hela cells; bulk resorufin, single well. Details: Viability of infected HeLa host cells, resazurin conversion, bulk resorufin fluorescence relative to DMSO.
The subject of data set [2] is T1, C. trachomatis L2/434/Bu expressing GFP (CTL2-GFP).
T1 construct: L2/434/Bu GFP intracellular growth in HeLa cells
Details: species or system HeLa; C. trachomatis total inclusion area by high-content imaging, normalised to DMSO. Particulars: 28.5 h, 10 µM; inhibitor. An excerpt: In this process, we also complemented the assay described above with an imaging-based readout (Fig 1B). After measurements of bulk GFP and resorufin fluorescence, cells were fixed, stained with the DNA dye Hoechst, and imaged at a high-content imaging platform to detect chlamydial inclusions (GFP) and host cell nuclei (Hoechst). The total area and number of inclusions in individual wells and the number of nuclei then served as additional proxies for chlamydial growth and host cell viability. […] MICs were calculated as described above.

Data set [3] has as its system T2, CTL2-GFP (C. trachomatis L2/434/Bu, GFP-expressing).
T2 construct: L2/434/Bu, GFP-expressing
Also noted: species or system HeLa; Intracellular C. trachomatis growth in HeLa cells, bulk GFP fluorescence relative to DMSO. Particulars: 28.5 h, 10 µM; inhibitor.

A short description of data set [4]: in vitro. Particulars: human, hela cells.
Another data set deals with T3, G. vaginalis.
T3 construct: DSM 4944
Nature of the data set: microbe, parasite or virus in culture. Details: Microbial growth in liquid dilution assay, OD600 relative to DMSO control. The following applies: Gardnerella vaginalis, read-out: G. vaginalis, IC50 (µM) estimate.

For the next data set, the system named is T4, C. albicans.
T4 construct: DSM 1577
The data set is described as follows: microbe, parasite or virus in culture. Also noted: Microbial growth in liquid dilution assay, OD600 relative to DMSO control. Particulars: Candida albicans, read-out: C. albicans, IC50 (µM) estimate.

In data set [5] the test system is T2, CTL2-GFP (C. trachomatis L2/434/Bu, GFP-expressing). Nature of the data set: microbe, parasite or virus in culture. Also noted: Intracellular C. trachomatis growth in HeLa cells, bulk GFP fluorescence relative to DMSO. The following applies: Chlamydia trachomatis, HeLa, 28.5 h; bulk GFP. Here is the method: (§1) MICs were calculated as described above.
Another data set deals with T5, L. iners.
T5 construct: DSM 13335
Nature of the data set: organism not typed. Details: Microbial growth in liquid dilution assay, OD600 relative to DMSO control. The following applies: estimated IC50; read-out: L. iners, IC50 (µM) estimate.

A further data set concerns T6, E. faecalis.
T6 construct: DSM 20478
The data set is described as follows: microbe, parasite or virus in culture. Also noted: Microbial growth in liquid dilution assay, OD600 relative to DMSO control. Particulars: Enterococcus faecalis; estimated IC50; read-out: E. faecalis, IC50 (µM) estimate. An excerpt: (§2) Compound effects on commensal microbes in dilution assay As our objective was to discover compounds that inhibit Chlamydia selectively but spare commensal bacteria, we further tested 15 of our top compounds (c1e–c10e and c1v–c5v) against five bacterial species, Escherichia coli, Lactobacillus reuteri, Enterococcus faecalis, Bacteroides thetaiotaomicron, and Bifidobacterium adolescentis, representing the four dominating phyla of the human gut microbiota. […] Exceptions were c3e and c5e, which at 30 µM were inhibitory to some species. […] Of note, c1e–c3e had little or no effect on the growth of an even larger set of species of gut bacteria, also including Blautia coccoides, Prevotella copri, Prevotella histicola, Bacteroides fragilis, and Dubosiella newyorkensis, when tested in radial diffusion assays, in which the bacteria were exposed to compounds for 24–48 h before measurements of growth inhibition zones (S10B Fig and S5G Data).

Another data set relates to T7, B. thetaiotaomicron.
T7 construct: DSM 2079
Nature of the data set: microbe, parasite or virus in culture. Also noted: Microbial growth in liquid dilution assay, OD600 relative to DMSO control. The following applies: Bacteroides thetaiotaomicron; estimated IC50; read-out: B. thetaiotaomicron, IC50 (µM) estimate.
From the text: as §2

Another data set deals with T8, L. reuteri.
T8 construct: DSM 20016
The data set is described as follows: microbe, parasite or virus in culture. Also noted: Microbial growth in liquid dilution assay, OD600 relative to DMSO control. The following applies: Limosilactobacillus reuteri; estimated IC50; read-out: L. reuteri, IC50 (µM) estimate.
From the text: as §2

The test system of the next data set is T9, B. adolescentis.
T9 construct: DSM 20083
The data set is described as follows: microbe, parasite or virus in culture. Details: Microbial growth in liquid dilution assay, OD600 relative to DMSO control. Particulars: Bifidobacterium adolescentis; estimated IC50; read-out: B. adolescentis, IC50 (µM) estimate.
From the text: as §2

For the next data set, the system named is T10, E. coli.
T10 construct: DSM 301
The data set is described as follows: microbe, parasite or virus in culture. Details: Microbial growth in liquid dilution assay, OD600 relative to DMSO control. The following applies: Escherichia coli; estimated IC50; read-out: E. coli, IC50 (µM) estimate.
From the text: as §2

A further data set has as its system T11, L. crispatus.
T11 construct: DSM 20584
The data set is described as follows: microbe, parasite or virus in culture. Particulars: Lactobacillus crispatus; estimated IC50; read-out: L. crispatus, IC50 (µM) estimate. Details: Microbial growth in liquid dilution assay, OD600 relative to DMSO control.

Data set [6] deals with T2, CTL2-GFP (C. trachomatis L2/434/Bu, GFP-expressing). The data set is described as follows: microbe, parasite or virus in culture. The following applies: Chlamydia trachomatis, 28.5 h; bulk GFP. Details: species or system HeLa; Intracellular C. trachomatis growth in HeLa cells, bulk GFP fluorescence relative to DMSO. The procedure:
as §1

Data set [7] concerns T1, C. trachomatis L2/434/Bu expressing GFP (CTL2-GFP). The data set is described as follows: microbe, parasite or virus in culture. Also noted: C. trachomatis GFP growth in infected HeLa cells, bulk GFP fluorescence normalised to DMSO. The following applies: Chlamydia trachomatis, HeLa, 26 h; read-out: IC50 (µM), bulk GFP fluorescence. The procedure:
as §1

The test system is the same in data set [8]. Nature of the data set: microbe, parasite or virus in culture. Also noted: C. trachomatis total inclusion area by high-content imaging, normalised to DMSO. Particulars: Chlamydia trachomatis, HeLa, 28.5 h; read-out: IC50 (µM), total inclusion area. The procedure, abridged:
(§3)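 Read-out combines bulk fluorescence and imaging: GFP tracks chlamydial growth, resorufin tracks host cell viability. Plates were then fixed and Hoechst-stained so inclusions and nuclei could be imaged and counted per well.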

Data set [9] relates to T2, CTL2-GFP (C. trachomatis L2/434/Bu, GFP-expressing). The data set is described as follows: microbe, parasite or virus in culture. Particulars: Chlamydia trachomatis, HeLa, 28.5 h; mean of GFP and inclusion area. Also noted: C. trachomatis growth in HeLa, dose-response, mean of bulk GFP fluorescence and imaged total inclusion area. The procedure, abridged:
as §3

The nature of data set [10]: in vitro. Also noted: Viability of infected HeLa host cells, resazurin conversion, bulk resorufin fluorescence relative to DMSO. Particulars: human, hela cells; bulk resorufin, mean of 3.
In data set [11] the test system is T2, CTL2-GFP (C. trachomatis L2/434/Bu, GFP-expressing). Nature of the data set: microbe, parasite or virus in culture. Details: species or system HeLa; C. trachomatis growth in HeLa, dose-response, mean of bulk GFP fluorescence and imaged total inclusion area. The following applies: Chlamydia trachomatis, 28.5 h; mean of GFP and inclusion area. The procedure, abridged:
as §3

In data set [12] the target is T12, ctFabH (CTL2 FabH), His6(-fMet)SG-ctFabH (Chlamydia trachomatis, UniProt O84242).
T12 construct: synthetic gene, modified pRSF-Duet1, E. coli host; partly acylated (mainly pentanoyl) as purified
T12 sequence (O84242 2-327): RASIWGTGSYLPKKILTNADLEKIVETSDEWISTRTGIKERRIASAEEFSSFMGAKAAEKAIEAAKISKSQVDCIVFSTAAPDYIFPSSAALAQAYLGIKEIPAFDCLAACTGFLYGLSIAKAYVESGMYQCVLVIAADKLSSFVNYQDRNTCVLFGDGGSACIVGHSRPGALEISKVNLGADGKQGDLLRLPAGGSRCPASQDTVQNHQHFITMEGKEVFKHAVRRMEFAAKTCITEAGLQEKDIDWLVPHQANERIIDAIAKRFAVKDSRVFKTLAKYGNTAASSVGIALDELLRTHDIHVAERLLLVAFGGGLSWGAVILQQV
Nature of the data set: continuous UV assay of acetoacetyl-CoA at […] nm. Type of data set: biochemical. Particulars: 20 µM enzyme, 100 µM acetyl-CoA, 100 µM malonyl-CoA, pH 8.0, 25 °C, 50 mM MgCl2; surrogate of malonyl-ACP.

In brackets after ≈: the same amount, converted by molar mass. Where two headings read alike, the source gives them in different places. A value given as a limit tells only on which side of the number the result lay.

In general, viability refers to a read-out of living cells in per cent, often relative to untreated cells. In the case of `O=C(c1cccc(S(=O)(=O)F)c1)N1CCCCC1` [CBK074224], the viability at 28.5 h, 10 µM in the data set “in vitro [1]” stood at 96.6%.
Consider `S=P(Oc1ccccc1)(Oc1ccccc1)Oc1ccccc1` [CBK260987], for which the viability at 28.5 h, 10 µM in “in vitro [1]” was 87.5%.
Still for that read-out and setting: in the case of `CCOC(=O)CC(C)(O)P(=O)(OC)OC` (centres unmarked) [CBK261287] it was 101%.
In the case of `CCn1cc(C(=O)O)c(=O)c2cc(F)c(NC3CCCCC3)cc21` [CBK286635], the “% of control remaining” value was 72.3144 in data set [2] and 100.652 in data set [3]. For the same compound, the viability at 28.5 h, 10 µM in the data set “in vitro [4]” was 89.2%.
By IC50 is commonly meant the point on the concentration scale where inhibition reaches its midpoint. As to `CCc1cccc(OCC(=O)Nc2ccc(S(=O)(=O)Nc3onc(C)c3C)cc2)c1` [c2v], the IC50 was more than 30 µM in the data set on G. vaginalis; more than 30 µM in the data set on C. albicans; 0.471 µM in [5]; more than 30 µM in the data set on L. iners; more than 30 µM in the data set with E. faecalis; more than 30 µM in the data set on B. thetaiotaomicron. Moreover, the concentration for half-maximal inhibition (IC50) in the data set on L. reuteri, with B. adolescentis, in the data set with E. coli and in the data set on L. crispatus was more than 30 µM each time. This compound also came in with an MIC in [6] of 0.693 µM (≈ 0.298 µg/mL).
As to `O=C(NN=Cc1ccc([N+](=O)[O-])o1)c1nc(-c2ccccc2)cc(-c2ccccc2)n1` [c3e], the IC50 stood at 0.118 µM in data set [7] and 0.133 µM in data set [8].
With `O=C(CC1CCN(CCc2ccccc2)CC1)Nc1cccc(-n2cccn2)c1` [c4e], the IC50 in the data set on G. vaginalis was more than 30 µM. The IC50 in the data set on C. albicans is more than 30 µM. Further, the midpoint of inhibition in [9], the IC50, lay at 0.332 µM. For the same compound, in the data set with L. iners, the IC50 was more than 30 µM. In addition, in “in vitro [10]”, the viability at 28.5 h, 0.000416667 µM is 92.2%; the viability at 28.5 h, 0.00125 µM worked out at 95.9%; the viability at 28.5 h, 0.00375 µM came out at 89.2%; the viability at 28.5 h, 0.0123333 µM amounted to 92.7%. Besides, in “in vitro [10]”, the viability at 28.5 h, 0.037 µM was 90.6%; the viability at 28.5 h, 0.111 µM was found to be 94.2%; the viability at 28.5 h, 0.333 µM stood at 86.2%; the viability at 28.5 h, 1 µM is 89.9%. Also, in “in vitro [10]”, the viability at 28.5 h, 3 µM was found to be 82.9%; the viability at 28.5 h, 10 µM was 88.5%; the viability at 28.5 h, 30 µM amounted to 87.2%. In addition, in the data set on E. faecalis, the IC50 is more than 30 µM. For the same compound, the IC50 in the data set with B. thetaiotaomicron is more than 30 µM. The concentration for half-maximal inhibition (IC50) with L. reuteri is more than 30 µM. Moreover, the IC50 with B. adolescentis was more than 30 µM. Also, the IC50 in the data set on E. coli is more than 30 µM. The IC50 in the data set with L. crispatus was more than 30 µM. The compound also registered an MIC in data set [11] of 1.56 µM (≈ 0.605 µg/mL).
For `Cc1ccc(C(=O)/C=C/Nc2ccc(S(=O)(=O)Nc3onc(C)c3C)cc2)cc1` [c4v], the IC50 in data set [5] was 1.32 µM; with E. faecalis it was more than 30 µM; in the data set on B. thetaiotaomicron it was more than 30 µM; in the data set on L. reuteri, more than 30 µM; in the data set on B. adolescentis it was more than 30 µM; in the data set on E. coli, more than 30 µM. Also, the MIC in data set [6] stood at 1.88 µM (≈ 0.775 µg/mL).
As to `CCc1nnc(NS(=O)(=O)c2ccc(NC(=O)COc3ccc4ccccc4c3)cc2)s1` [c5v], the IC50 was 1.43 µM in data set [5]; more than 30 µM in the data set with E. faecalis; more than 30 µM in the data set with B. thetaiotaomicron; more than 30 µM with L. reuteri; more than 30 µM in the data set with B. adolescentis; more than 30 µM in the data set on E. coli. This compound returned an MIC in [6] of 2.24 µM (≈ 1.05 µg/mL).
On to `CC(C)(COP(=O)(O)OP(=O)(O)OC[C@H]1O[C@@H](n2cnc3c(N)ncnc32)[C@H](O)[C@@H]1OP(=O)(O)O)[C@@H](O)C(=O)NCCC(=O)NCCSC(=O)CC(=O)O` [malonyl-CoA], for which the “continuous UV assay of acetoacetyl-CoA at 302 nm” value in data set [12] is “using acetyl-CoA and malonyl-CoA (instead of malonyl-ACP) as substrates”.
